In paper PMC5321741, “Arylmethylamino steroids as antiparasitic agents” (Nature Communications, 2017):
In brackets after ≈: the same amount, converted by molar mass. Read-outs that look alike come from different tables or passages of the source.

Tests used:
[1] = in vitro; assay type: cell-based; conditions: Human
Experimental: Furthermore, cytotoxicity tests were carried out on immortalized human hepatocytes, Fa2N-4 cells (XenoTech, cat.no. IFH15), at the Sanford-Burnham Medical Research Institute. Cells were incubated with a range of concentrations (0.01–50 μM) of compound 1o for 24 h. Cell viability was determined with cellular ATP levels by using the Luminescence ATP Detection Assay System (ATPlite 1 step).

[2] = plasma stability; assay type: in vitro ADME; conditions: for remaining at 3 h: plasma, read-out: Plasma Stability % remaining after 3 h
Experimental: (§1) Pharmacokinetic data were obtained for compound 1o at the Sanford-Burnham Medical Research Institute according to established procedures. Compound solubility in an aqueous solution was measured using an automated kinetic solubility method. The concentration of the compound in a saturated pH-buffered aqueous solution was determined via UV absorbance (250–498 nm) and compared with the spectra of a precipitation-free reference solution. The plasma stability of the compound was determined at a single concentration using species-specific plasma. The percentage of parent compound remaining after 3 h was determined via LC-MS/MS. The percentage of compound 1o bound to plasma proteins was determined through rapid equilibrium dialysis and quantified via LC-MS/MS. Metabolic stability of the compound was determined at a single concentration using species-specific liver microsomes that contained cytochrome P450s, flavin-monooxygenases, carboxyl-esterases, epoxide hydrolases, and other drug-metabolizing enzymes. The quantification was carried out via LC-MS/MS. Membrane permeability of compound 1o was measured using an in vitro model for the passive transport from the gastrointestinal tract into the blood system. A double-sink parallel artificial membrane permeability assay PAMPA, in a 96-well format was employed.

[3] = plasma protein binding (rapid equilibrium dialysis); assay type: in vitro ADME; conditions: read-out: Plasma Protein Binding % bound (converted)
Experimental: as §1

[4] = test system: P. berghei transmission from mice to Anopheles gambiae mosquitoes; experiment: in vivo transmission-blocking assay; design: species or system Plasmodium berghei; conditions: 100 mg kg−1 i.p. daily, three doses; 4 days post passage
Experimental: We further tested the activity of compound 1o on parasite transmission from mice to Anopheles gambiae mosquitoes. For this, P. berghei-infected mice received a daily injection of compound 1o for 3 days starting 24 h post passage and were exposed to mosquito bites 24 h after each injection. Tween 80 (Tw80) and methylene blue (MB) served as negative and positive controls, respectively. As with MB, compound 1o limited parasite multiplication in mice, albeit to a lesser extent (Fig. 3a). […]
Figure 3 Effect of compound 1o on P. berghei multiplication in mice and on parasite transmission to mosquitoes. […] Parasitemia was monitored daily and the mean± s.d. of three independent experiments are plotted. […] (b) Prevalence (percentage of infected mosquitoes) and (c) infection intensity (mean number of parasites per infected midgut) were determined 7 days post infectious blood feeding. […] Significance for differences between treatments was calculated using generalized linear models with treatment, time, and repeats as variables, ***P value <0.001 (a–c). n, number of mosquitoes. […] Survival of treated gametocytes was calculated for each concentration relative to parasites exposed to vehicle. […]
Parasitaemia was determined daily via FACS analysis (FACSCalibur, BD Bioscience). […]

[5] = aqueous kinetic solubility; assay type: physicochemical; conditions: kinetic from dmso stock
Experimental: as §1

[6] = spectrophotometric titration by Fe(III); assay type: physicochemical; conditions: 0.2 M HEPES pH 7.5 + DMSO (1:1 v/v), 25.0 °C
Experimental: Supplementary Figure 17. (left) Spectrophotometric titration of the substrates 1o and 2o by Cu(II) and Fe(III) and (right) electronic spectra of the free substrates and of corresponding metal complexes. Solvent: 0.2 M aqueous sodium HEPES buffer pH 7.5 + DMSO (1:1 v/v); T = 25.0 […]
were prepared in CH3CN (5 mM). Haematin and the substrates were mixed together in […]
The absorption spectrophotometric […]
each addition of the substrate. […]
spectrophotometric data with the Specfit program. The uncertainties on the log K values are given as 3σ with σ = standard deviation. Origin 7.0 was used to process the analytical

SMILES	CC50 at 24 h [1] [µM]	Plasma Stability % remaining after 3 h ([2]; Human) [%]	Plasma Stability % remaining after 3 h ([2]; Mouse) [%]	remaining at 3 h ([2]; human) [%]	remaining at 3 h ([2]; mouse) [%]	fraction unbound at 1 µM ([3]; Human)	fraction unbound at 10 µM ([3]; Human)	fraction unbound at 1 µM ([3]; Mouse)	fraction unbound at 10 µM ([3]; Mouse)	parasite transmission to mosquitoes [4]	solubility ([5]; Pion's buffer, aqueous buffer, pH 5.0, read-out: Aqueous Solubility (Pion's Buffer)) [µg/mL]	solubility ([5]; Pion's buffer, pH 6.2, aqueous buffer, read-out: Aqueous Solubility (Pion's Buffer)) [µg/mL]	solubility ([5]; Pion's buffer, pH 7.4, aqueous buffer, read-out: Aqueous Solubility (Pion's Buffer)) [µg/mL]	solubility kinetic ([5]; pH-buffered aqueous solution, aqueous buffer, across a range of pH) [µM]	solubility ([5]; pH-buffered aqueous solution, aqueous buffer, across a range of pH, read-out: aqueous solubility) [µg/mL]	log K2o.Fe [6]
COc1ccc2c(c1)CCC1C2CC[C@@]2(C)C1CC[C@H]2NCc1cc2ccccc2cc1O (stereo partly shown) [1o]	> 50	62	58	62.5	58.9	0.0087	0.0094	0.0094	0.0107	fully block parasite transmission to mosquitoes	0.26 (≈ 0.589 µM)	0.38 (≈ 0.86 µM)	0.3 (≈ 0.679 µM)	< 2.3	< 1	
COc1ccc2c(c1)CCC1C2CC[C@@]2(C)C1CC[C@@H]2NCc1cc2ccccc2cc1O (stereo partly shown) [2o]																4.3
